Results on one molecule are retold here after patent US20180021278A1, “TREATMENT OR PREVENTION OF INFLAMMATION USING SERINE” (NESTEC S.A., priority 2015, published 2018).

The test system of this assay is DSS-induced colitis. Nature of the assay: DSS-induced colitis in rats, histological total colitis score of colon sections (HE staining). In kind it is in vivo. As to conditions: male Sprague-Dawley rats, 5% DSS D0-D8 then 2% DSS D9-D28, control diet supplemented with 10 g/kg dry matter serine (DSS-SER) vs alanine-supplemented DSS-ALA group. As to the method: The experimental procedures were carried out in accordance to European guidelines for the care and use of laboratory animals (Directive 2010/63/UE). 30 male Sprague-Dawley rats from Janvier (France), aged […] and weighting around 500/700g on the day of arrival, were used for this study. Animals were individually housed in cages. During the study, they had free access to food and drinking water or a dextran sulfate sodium (DSS, MW 36-44 kDa, ICN Biomedicals) solution ad libitum. Colitis was induced by treating rats with 5% DSS from D0 to D8 (acute colitis) and then 2% DSS from D9 to D28 (chronic colitis). DSS was dissolved in autoclaved water and provided ad libitum to the rats. Animals of the control group were given water not containing DSS from D0 to D28.
3 groups of rats received the following treatment and diets: […]
At the end of the experiment (D28), animals were anesthetized using a combination of ketamine and xylasine and then euthanized by cervical dislocation. […] A score (ranging from 0 to 3) was finally determined for each criterion on each colon section and a total score was calculated.

In the case of `N[C@@H](CO)C(=O)O` [Serine, serine], the “Total colitis score (sum of 0-3 scores for mucosal degeneration, mucosal regeneration and hyperplasia, acute and sub-acute inflammation)” value is, setting by setting: (p<0.05) “significantly lower”; (p<0.05, listed as serine) “reduced colitis”.
